From PubChem BioAssay (NCI)
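Tested at 5 concentrations; 48 h exposure; 96-well plates; endpoints linearly interpolated, else capped at highest concentration. GI50: concentration for 50% inhibition of growth. TGI: total growth inhibition.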

Key:
Test in all cases: NCI anticancer screen, dose series, 48 h
[1] = tested on: 786-0 renal
[2] = tested on: ACHN renal
[3] = tested on: BT-549 breast
[4] = tested on: CAKI-1 renal
[5] = tested on: COLO 205 colon
[6] = tested on: DU-145 prostate
[7] = tested on: EKVX NSCLC
[8] = tested on: HCT-116 colon
[9] = tested on: HCT-15 colon
[10] = tested on: HL-60(TB) leukemia
[11] = tested on: HOP-62 NSCLC
[12] = tested on: HOP-92 NSCLC
[13] = tested on: HS 578T breast
[14] = tested on: IGROV1 ovarian
[15] = tested on: K-562 leukemia
[16] = tested on: KM12 colon
[17] = tested on: LOX IMVI melanoma
[18] = tested on: M14 melanoma
[19] = tested on: MDA-MB-231 breast
[20] = tested on: MDA-MB-435
[21] = tested on: MOLT-4 leukemia
[22] = tested on: NCI-H226 lung
[23] = tested on: NCI-H460 lung
[24] = tested on: NCI-H522 lung
[25] = tested on: OVCAR-3 ovarian
[26] = tested on: OVCAR-4 ovarian
[27] = tested on: OVCAR-5 ovarian
[28] = tested on: OVCAR-8 ovarian
[29] = tested on: PC-3 prostate
[30] = tested on: RPMI-8226 leukemia
[31] = tested on: RXF 393 renal
[32] = tested on: SF-268 CNS
[33] = tested on: SF-295 CNS
[34] = tested on: SF-539 CNS
[35] = tested on: SK-MEL-2 melanoma
[36] = tested on: SK-MEL-5 melanoma
[37] = tested on: SK-OV-3 ovarian
[38] = tested on: SN12C renal
[39] = tested on: SNB-19 CNS
[40] = tested on: SNB-75 CNS
[41] = tested on: SR leukemia
[42] = tested on: SW-620 colon
[43] = tested on: U251 CNS
[44] = tested on: UACC-257 melanoma
[45] = tested on: UACC-62 melanoma
[46] = tested on: UO-31 renal
[47] = tested on: A549 NSCLC
[48] = tested on: CCRF-CEM leukemia
[49] = tested on: T-47D breast

CC1=C(C(=O)Nc2ccc(Cl)c(Cl)c2)C(c2cccc(O)c2)NC(=S)N1 (stereo unspecified)
GI50 [1]: 9.47 µM
TGI [1]: 20 µM
GI50 [2]: 9.23 µM
TGI [2]: 19.7 µM
GI50 [3]: 7.97 µM
TGI [3]: 19.3 µM
GI50 [4]: 14.4 µM
TGI [4]: 38.5 µM
GI50 [5]: 7.09 µM
TGI [5]: 14.6 µM
GI50 [6]: 7.28 µM
TGI [6]: 14.5 µM
GI50 [7]: 9.38 µM
TGI [7]: 21.4 µM
GI50 [8]: 18.1 µM
TGI [8]: > 50 µM
GI50 [9]: 21.8 µM
TGI [9]: > 50 µM
GI50 [10]: 11.2 µM
TGI [10]: 44.2 µM
GI50 [11]: 17.3 µM
TGI [11]: 31.2 µM
GI50 [12]: 13.6 µM
TGI [12]: 35.2 µM
GI50 [13]: 9.5 µM
TGI [13]: 24.9 µM
GI50 [14]: 12.8 µM
TGI [14]: 44.2 µM
GI50 [15]: 10.8 µM
TGI [15]: 37.3 µM
GI50 [16]: 7.77 µM
TGI [16]: 16.6 µM
GI50 [17]: 7.09 µM
TGI [17]: 13.8 µM
GI50 [18]: 13.6 µM
TGI [18]: 26.7 µM
GI50 [19]: 8.44 µM
TGI [19]: 20 µM
GI50 [20]: 9.16 µM
TGI [20]: 18.5 µM
GI50 [21]: 16.8 µM
TGI [21]: > 50 µM
GI50 [22]: 12 µM
TGI [22]: 30.8 µM
GI50 [23]: 13.5 µM
TGI [23]: 21.4 µM
GI50 [24]: 12 µM
TGI [24]: 25.2 µM
GI50 [25]: 5.69 µM
TGI [25]: 12.5 µM
GI50 [26]: 12.4 µM
TGI [26]: > 50 µM
GI50 [27]: > 50000 nM
TGI [27]: > 50 µM
GI50 [28]: 15.9 µM
TGI [28]: 28.1 µM
GI50 [29]: 9.54 µM
TGI [29]: 31.4 µM
GI50 [30]: 10.1 µM
TGI [30]: 38.1 µM
GI50 [31]: 12.8 µM
TGI [31]: 29.3 µM
GI50 [32]: 8.35 µM
TGI [32]: 17 µM
GI50 [33]: 8.63 µM
TGI [33]: 17.6 µM
GI50 [34]: 8.15 µM
TGI [34]: 15.7 µM
GI50 [35]: 8 µM
TGI [35]: 18.3 µM
GI50 [36]: 8.12 µM
TGI [36]: 15.4 µM
GI50 [37]: 10 µM
TGI [37]: 20.4 µM
GI50 [38]: 8.66 µM
TGI [38]: 20.1 µM
GI50 [39]: 11.4 µM
TGI [39]: 30.3 µM
GI50 [40]: 11.8 µM
TGI [40]: 47.8 µM
GI50 [41]: 14.2 µM
TGI [41]: 49 µM
GI50 [42]: 12.5 µM
TGI [42]: 33.2 µM
GI50 [43]: 8.82 µM
TGI [43]: 18.1 µM
GI50 [44]: 12.5 µM
TGI [44]: > 50 µM
GI50 [45]: 7.09 µM
TGI [45]: 14.7 µM
GI50 [46]: 9.48 µM
TGI [46]: 19.1 µM

N=C(N)c1ccc(-c2ccc(-c3cc(Cl)cc(Cl)c3)s2)nc1
GI50 [47]: 2070 nM
TGI [47]: 4.56 µM
GI50 [48]: 2390 nM
TGI [48]: 5.86 µM
GI50 [6]: 1.88 µM
TGI [6]: 3.33 µM
GI50 [10]: 2.12 µM
TGI [10]: 4.95 µM
GI50 [12]: 3.43 µM
TGI [12]: 19.4 µM
GI50 [24]: 2.16 µM
TGI [24]: 4.73 µM
GI50 [27]: 1680 nM
TGI [27]: 3.05 µM
GI50 [30]: 2.31 µM
TGI [30]: 5.26 µM
GI50 [35]: 2.7 µM
TGI [35]: 7.02 µM
GI50 [37]: 2.6 µM
TGI [37]: 8.15 µM
GI50 [40]: 1.47 µM
TGI [40]: 3.03 µM
GI50 [49]: 2120 nM
TGI [49]: 4.99 µM
